Experiments:
[1] = cited from earlier work; for H—B pKa: conjugate acid of B^-
[2] = Solubility measurement (saturated solution concentration by NMR); assay type: physicochemical; conditions: with less than 0.1 M β-CD added
Protocol: A general procedure was applied following below steps. First a supernatant was prepared by mixing solute and solvent with heating, stirring, and centrifugation. The resulting cooled mixture was filtered through 0.2 μm PP membrane filter. The saturated solution concentration was determined by NMR. NMR sample was prepared with mixing 100 μL of saturated solution, 50 μL of internal standard solution (1 M sodium methane sulfonate) and 950 μL D2O.

[3] = Small-angle X-ray scattering (SAXS) cluster size; assay type: physicochemical; conditions: for Diameter: SAXS
Text: Small-angle X-ray scattering: Synchrotron SAXS technique is a powerful technique to measure the size of dissolved molecules, clusters, and suspended particles. SAXS resolves the particle size and shape over a wide range of sizes from several Å to hundreds of nm. Considering the small sizes and low electron contrast of β-CD, FL and FLOH relative to solution, there was a focus on collecting data from a scattering vector, q, of 0.05 to 2 Å-1. Small-angle X-ray scattering (SAXS) data was acquired at beamline 12-ID-B of the APS. A constant incident photon energy of 13.3 keV (λ=0.9322 Å) was used to measure samples in transmission through a 2-mm ID silica capillary (Charles Supper SiO2 capillaries, 10 μm wall thickness). Sample-to-detector distance was calibrated using a silver behenate standard. 2D images were recorded using a Pilatus 2M detector (Dectris; pixel size 172×172 μm^2) for five frames at a 1 s exposure time each. Artifacts from static noise were subtracted using detector dark images, which were acquired every ten frames. Solution blanks were acquired identical to the suspension samples and subtracted using a scaling factor of 1. The RAW program from the BioXTAS package was used, as well as SasView and Irena, to integrate the data, average and merge scans, perform background subtractions, and to calculate pair distance distribution functions (PDDF).

[4] = PFG NMR diffusion coefficients (1H, 23Na); assay type: physicochemical; conditions: for D(Na^+): 23Na PFG NMR at 25° C.
Protocol: Nuclear magnetic resonance spectroscopy: NMR spectra were either collected on a 500 MHz Oxford NMR spectrometer at 25° C. (the system consists of an Oxford AS500 magnet connected to an Agilent Technologies console), or collected on a 400 MHz NMR spectrometer (Bruker 400 MHz Avance III NMR with NanoBay console, equipped with a SampleCase™ autosampler using IconNMR automation. Probe: BBFO 5 mm SmartProbe sensor). Chemical shifts were reported in ppm with the solvent resonance as the internal standard (DMSO, δ=2.50; D2O, δ=4.70; CDCl3, δ=7.26).

[5] = Rotating disk electrode (RDE) study; assay type: physicochemical; conditions: 27S4CFL (5 mM) in 0.1 M β-CD/1 M NaOH
Protocol: Rotating disk electrode (RDE) measurements (Feng et al., Science 2021, 372:836) were performed using a three-electrode configuration consisting of a glassy carbon working electrode (3 mm diameter), a carbon rod counter electrode and an Ag/AgCl reference electrode. The electrolytes of 5 mM redox-active materials in 1.0 M NaOH were used. Data were collected using a CHI potentiostat at scan rates of 5 mV/s in the potential range of −1.55V˜−0.5V vs Ag/AgCl. The rotation rates were at 300, 600, 900, 1200, 1500, 1800, 2100 and 2400 rpm. […] The Koutecky-Levich plots at different overpotentials were extrapolated to get the kinetic current ik according to the Koutecky-Levich equation:
[formula] The exchange current i0 can be obtained by fitting ik to the Tafel plot at the overpotential of zero, from which the reaction rate constant (k0) was determined according to Butler-Volmer equation: i0=nFACk0 Flow Battery Tests

[6] = EPR of comproportionation mixture (FLOH + FL); conditions: 0.001 M FLOH and 0.001 M FL 1:1, 0.001 M β-CD, 20 min after mixing
Protocol: Electron paramagnetic resonance spectroscopy: EPR measurements were performed on a Bruker ELEXSYS E580 spectrometer at 298 K. The electrolyte solution sample was pulled into a glass capillary (VitroTubes™, ID 0.8 mm and OD 1 mm) using a Hamilton syringe connected through nanotight fittings from Valco Instruments Co. Inc. The capillary was sealed using Critoseal™ Leica Microsystems capillary tube sealant on both ends and was further placed inside a 4 mm EPR tube with the open end sealed inside a glove box filled with nitrogen. All samples were prepared inside the glove box immediately before EPR experiments to minimize the influence of air and moisture. The typical settings for the spectra were microwave frequency=9.324 GHz, sweep time=41.94 s, time constant=5.12 ms, power=0.02 mW, field modulation amplitude=0.05 G, and sweep width=24 G for dilute solutions in order to capture the detailed hyperfine structures but the sweep width was increased to 50 G for relatively concentrated solutions to incorporate their broader line widths. Absolute spin concentrations of the samples were determined by calibration curves of the spin standard TEMPO (2,2,6,6-tetramethyl-1-piperidinyloxyl) with concentrations varying from 0.01 mM to 100 mM, and another spin standard 4-Hydroxy-TEMPO with concentrations varying from 0.1 M to 1.0 M.

[7] = Battery current response test at controlled voltage; conditions: fully charged electrolyte, 0.9V controlled voltage discharge
Protocol: The battery of FIG. 13 was constructed similar to above described procedure, except that two consecutive cell stacks were employed (electrolyte flow through the two cells consecutively), one for charging and discharging, one for OCV monitoring. The battery in FIG. 18 was constructed using one cell stack, with additional pump and tubing system circulating ˜3 mL electrolyte through EPR detecting tube at 100 rpm rate. Anolyte was comprised of 12 mL 0.1 M 274FL/1 M NaOH with specified additive at 0.086 M. Catholyte was comprised of 500 mL 0.1 M ferrocyanide/0.05 M ferricyanide/1 M NaOH. Electrolyte was charged until desired SOC reached. Then the discharge current response was measured at controlled voltage of 0.9V. Each measurement was repeated 5 cycles (FIG. 13) and experiments were repeated two times in FIG. 18.

[8] = H-cell oxidation rate measurement (chronocoulometry)
Protocol: The measurement was conducted with H-cell equipped with Hg/HgO as reference electrode and Glassy carbon electrode as working electrode (0.0707 cm^2). Carbon rod was used as counter electrode. Stir bar was equipped to facilitate mass transfer, so it is not considered as a limiting factor in the measurement of oxidation process. Chronocoulometry method was applied at specified potential for 120 s with IR compensation (CI mode on Gamry) and 1.5 s per data point. Nafion® 212 (soaked in 1 M NaOH at room temperature) was used as separator. Each data point was repeated three times. The electrolyte solution was prepared using the battery charging to specified SOC. The battery was constructed with 8 mL of 0.3 M 274FL/1 eqNaOH/1 M NaOH and 30 mL of 0.3 M potassium ferrocyanide/0.3 M potassium ferricyanide/1 M NaOH. After charged to specified SOC, the anolyte solution was diluted with 1 M NaOH to result a 15 mM active material solution. The catholyte was diluted with 1 M NaOH to result an 8.75 mM potassium ferrocyanide/28.75 mM potassium ferricyanide solution. The solution used for H-cell measurement in each compartment was 5 mL, with addition of specified amount of additive. To prepare deuterated fluorenol, the cell was constructed using NaOD/D2O for both anolyte and catholyte.
Due to well stirred solution and only 120 s measurement with small electrode area, mass transfer and SOC change influence can be considered as neglectable. Thus, a linear relationship was obtained (A condition where neglectable oxidizable material concentration change during testing period). The slope represents an oxidation rate (C/s, average current, unit A) for the solution oxidizable species during that testing period.
A heterogeneous reaction oxidation rate constant (cm/s) at a specified overpotential was calculated based on a pseudo first order reaction model (Hammerich et al., Organic electrochemistry:revised and expanded 2015, CRC Press; Markle et al., Science Advances 2018, 4: eaat5776):
[formula] here “i” unit is A(C/s), A is 0.0707 cm^2. […]

[9] = pKa of additive / proton acceptor (H—B) and deprotonation of β-CD in alkaline solution; assay type: physicochemical; conditions: 0.1 M β-CD added to 1 M NaOH
Text: β-(Cyclodextrin)CD was selected as model compound. Not only benefiting from the cavity containing poly-hydroxyl structure, but it also has a pKa at around 13.5, which is similar to the pKa of functionalized fluorenol, rendering a potentially strong H-bonding structure. Based on past studies (Gaidamauskas et al., Carbohydrate Research 2009, 344:250-254) and measurement of β-CD behavior in alkaline solution, this supermolecule experiences two-fold of deprotonation in 1 M NaOH. […] From a battery operation point, β-CD is notable for its redox-inert character and large molecular size, which leaves no concern of crossover and loss of catalyst. From a practical application point, the low-cost and non-toxic merit warrants feasible implementation.

[10] = ratio of diffusion coefficients

| Compound | Diameter [3] | D(FLOH or FL) ([4]; 1H PFG NMR at 25° C.) | D(H2O) ([4]; 1H PFG NMR at 25° C.) | D(Na^+) [4] | D(FLOH or FL)/D(H2O) [4, 10] | D(Na^+)/D(H2O) [4, 10] | H—B pKa [1] | further results |
| --- | --- | --- | --- | --- | --- | --- | --- | --- |
| Oc1ccc(O)cc1 |  |  |  |  |  |  | 9.7 |  |
| O=C(O)c1cccc2c1-c1ccc(S(=O)(=O)[O-])cc1C2=O.[K+] [4C7SFL, 4-carboxylate-7-sulfonate fluorenone/fluorenol] |  |  |  |  |  |  |  | solubility ([2]; aqueous with cosolvent or surfactant or cyclodextrin, thermodynamic from solid, read-out: measured solubility): ~1900 mM; solubility increase compared with solubility without β-CD [2]: ~30%; volumetric capacity corresponding to solubility [2]: 101.8 Ah/L |
| OCC(F)(F)F [CF3CH2O] |  |  |  |  |  |  | 11.4-12.4 |  |
| OC[C@H]1O[C@@H]2O[C@H]3[C@H](O)[C@@H](O)[C@@H](O[C@H]4[C@H](O)[C@@H](O)[C@@H](O[C@H]5[C@H](O)[C@@H](O)[C@@H](O[C@H]6[C@H](O)[C@@H](O)[C@@H](O[C@H]7[C@H](O)[C@@H](O)[C@@H](O[C@H]8[C@H](O)[C@@H](O)[C@@H](O[C@H]1[C@H](O)[C@H]2O)O[C@@H]8CO)O[C@@H]7CO)O[C@@H]6CO)O[C@@H]5CO)O[C@@H]4CO)O[C@@H]3CO [β-CD, β-cyclodextrin] | 11.76 ± 3.94 Å Å |  | 13.1 ×10^−10 m^2/s | 8.12 ×10^−10 m^2/s |  | 0.62 |  | pKa [1]: around 13.5; reduction of radical concentration estimated from EPR peak intensity [6]: 60%; peak current density relative to blank [7]: 1.6 times; height of the cup ([3]; SAXS RDFs): ~4 Å; width of the cup ([3]; SAXS RDFs): ~12 Å; D(β-CD) ([4]; 1H PFG NMR at 25° C.): 1.57 ×10^−10 m^2/s; D(β-CD)/D(H2O) [4, 10]: 0.12; increment of fluorenol oxidation ([8]; H-cell, −0.65V vs Hg/HgO): 1.6 times; KIE value ([8]; applied potential of −0.65V vs Hg/HgO): 2.42; deuterated fluorenol oxidation rate enhancement ([8]; deuterated fluorenol): 1.4 times; hydroxide consumption corresponding to pH decrease [9]: 0.184 M |

Continued, in another order:

| Diameter [3] | D(FLOH or FL) ([4]; 1H PFG NMR at 25° C.) | D(H2O) ([4]; 1H PFG NMR at 25° C.) | D(Na^+) [4] | D(FLOH or FL)/D(H2O) [4, 10] | D(Na^+)/D(H2O) [4, 10] | Compound | H—B pKa [1] | further results |
| --- | --- | --- | --- | --- | --- | --- | --- | --- |
| 16.48 ± 0.21 Å Å | 1.92 ×10^−10 m^2/s | 12.1 ×10^−10 m^2/s | 7.60 ×10^−10 m^2/s | 0.16 | 0.63 | O=C(O)c1cc(S(=O)(=O)O)cc2c1-c1ccc(S(=O)(=O)O)cc1C2=O [27S4CFL, 2,7-sulfonate-4-carboxylate fluorenone] |  | calculated diffusion coefficient [5]: 7.56×10^−6 cm^2/s; calculated kinetic reduction rate constant for the first electron [5]: 0.00351 cm/s |
| 12.32 ± 1.84 Å Å | 2.45 ×10^−10 m^2/s | 13.6 ×10^−10 m^2/s | 6.72 ×10^−10 m^2/s | 0.18 | 0.49 | O=C(O)c1cc(S(=O)(=O)O)cc2c1-c1ccc(S(=O)(=O)O)cc1C2O (centres unmarked) [FLOH, 2,7-sulfonate-4-carboxylate fluorenol] |  | D(FLOH - H6) ([4]; 1H PFG NMR at 25° C.): 2.43 ×10^−10 m^2/s |
